Data from patent publication US20160158240A1, “Compositions Containing Defined Caffeine and Theobromine Levels with Enhanced Cognitive Properties” (The Hershey Company, priority 2014, published 2016).

Experiments:
[1] = test system: subjects with a caffeine habit; assay: fMRI connectivity and brain blood flow analysis after test beverage; format: in vivo, human; details: subject that routinely ingests caffeine; brain regions consistent with caffeine cravings; FIG. 1 and FIG. 3
Excerpt: Measurement or detection of changes in the brain can be done using functional MRI (fMRI) and functional brain network analyses as known in the art. The following is an exemplary study using known techniques based upon fMRI scanning of human brains.
These examples represent an intervention study (number of subjects=24) with a randomized controlled, double-blind, placebo-controlled crossover design. The study is designed to ensure completion of all possibilities in the order of delivering the test samples, i.e. each subject is administered each of the possible test beverages in different order. […] For initial baseline testing, subjects undergo 16 hours of caffeine and chocolate withdrawal for a baseline testing and then participate in four separate brain scanning visits over 5-10 weeks. Study participants are ideally healthy adults 18-55 who consume moderate (200-500 mg) amounts of caffeine daily. […] As determined from a medical screening session, any subjects with active neurological dysfunction (such as a major Axis I psychopathology, Alzheimer's disease, Parkinson's disease, prior history of stroke, epilepsy, or serious CNS trauma, ADHD, migraines, hypertension, diabetes, peripheral vascular disease, or taking vasoactive medications, such as antihypertensive medications) are excluded from the study. […]

brain blood flow = details: study using 6 participants; cited from earlier work

Structure (SMILES): Cn1c(=O)c2c(ncn2C)n(C)c1=O [Caffeine, caffeine]
- change in blood flow/connectivity by fMRI [1]: reduction in blood flow/connectivity
- brain blood flow difference between caffeine and theobromine (brain blood flow): 5.03 ml/100 gm tissue/min
